Like-named read-outs stand apart in the source and are kept apart here.
Assay: Measurement of pKa value of the dyes (spectrophotometric titration)
Format: physicochemical
Conditions: titration from pH 2 with NaOH, UV-vis inflection point
Description: The pKa values of the dyes can be determined by the following method. The dye is dissolved in a solution of a DMF/water (1/1) volume ratio to a final concentration of 2×10^−5 mol/l. After adjusting the resulting solution to pH 2, using 1.0 mol/l hydrochloric acid, the solution is titrated with aqueous 1.0 mol/l sodium hydroxide solution. Recording the change of the visible ultra-violet absorption spectrum, the inflection point can be determined by regression analysis.

[1] = DMF/water (1/1 v/v) solution, read-out: pKa

Structure (SMILES)	pKa (DMF/water (1/1))	pKa [1]
CC(=O)Nc1cc(/N=N/c2nncs2)ccc1O [Dye 1]	6.0	
O=C(Nc1cc(/N=N/c2nc(-c3ccccc3)no2)c2ccccc2c1O)c1ccncc1 [Dye 2]	5.5	
CS(=O)(=O)c1ccc(/N=N/c2ccc(O)c3ccccc23)c(C#N)c1 [Dye 3]	6.5	
CC(=O)Nc1cc(/N=N/c2ccc(S(C)(=O)=O)cc2C#N)c2ccccc2c1O [Dye 4]		7
CSc1nnc(/N=N/c2ccc(O)c(NC(C)=O)c2)s1 [Dye 5]	6.1	
CC(=O)Nc1cc(/N=N/c2nc3ccccc3s2)ccc1O [Dye 6]	6.2	
Oc1ccc(/N=N/c2nc3ccccc3s2)cc1Cl [Dye 7]	5.9	
CCSc1nnc(N=Nc2ccc(O)c3cccc(NS(C)(=O)=O)c23)s1 [Dye 8]	4.4	
CS(=O)(=O)Nc1cccc2c(O)ccc(N=Nc3nc4ccccc4s3)c12 [Dye 9]	6.1	
CS(=O)(=O)Nc1cccc2c(O)ccc(/N=N/c3snc4ccc(S(N)(=O)=O)cc34)c12 [Dye 10]		5
CCC(=O)Nc1cc(N=Nc2snc3ccc(S(N)(=O)=O)cc23)cc(Cl)c1O [Dye 12]	4.0	
NS(=O)(=O)c1ccc2nsc(N=Nc3cc(Cl)c(O)cc3Cl)c2c1 [Dye 13]	4.7	
COCCOc1ccc(N=NC2C(=O)N(c3ccccc3)N=C2C(N)=O)cc1S(N)(=O)=O (stereo not drawn) [Dye 21]	6.4	
CCSc1nnc(/N=N/c2c(C(C)(C)C)nn3nc(C)[nH]c23)s1 [Dye 22]	5.5	
N#CC(/N=N/c1ccc(S(N)(=O)=O)cc1)C(=O)c1ccccc1 (stereo not drawn) [Dye 23]	5.8	
Cc1nn2nc(C(C)(C)C)c(/N=N/c3cc(Cl)c(S(N)(=O)=O)cc3Cl)c2[nH]1 [Dye 24]	5.9	
CCSc1nsc(/N=N/c2cc(Cl)c(O)c(NC(=O)CC)c2)n1 [Dye 25, reference compound]	3.0	
CCSc1nsc(/N=N/c2cc(Cl)c(O)cc2Cl)n1 [Dye 26, reference compound]	3.5	
CC(=O)Nc1cc(/N=N/c2snc3ccc(S(N)(=O)=O)cc23)c(Cl)c(Cl)c1O [Dye 27, reference compound]		3
CCC(=O)Nc1cc(/N=N/c2nccs2)cc(Cl)c1O [Dye 28, reference compound]		4.8
CCC(=O)Nc1cc(/N=N/c2nc(C)ns2)cc(Cl)c1O [Dye 29, reference compound]	3.3	
Cc1nsc(/N=N/c2cc(Cl)c(O)cc2Cl)n1 [Dye 30, reference compound]	3.8	
Cc1nsc(/N=N/c2ccc(O)c(Cl)c2)n1 [Dye 31, reference compound]	5.0	
CC(=O)Nc1cc(N=Nc2nc(C)ns2)ccc1O [Dye 32, reference compound]	5.2	
CCSc1nnc(/N=N/c2c(C(C)(C)C)nn3nc(C(C)C)[nH]c23)s1 [Dye 35, reference compound]	4.7	
CCc1nn2c(-c3ccc(OC)c(NS(C)(=O)=O)c3)n[nH]c2c1/N=N/c1nc(C(C)C)no1 [Dye 36, reference compound]	5.2	
CNS(=O)(=O)c1ccc2nsc(/N=N/c3cc(NC(C)=O)c(O)c(NC(C)=O)c3)c2c1 [Dye 39, reference compound]	3.9	

From US7198651B2, “Method of effecting a reversible color change of dyed hair” (Kao Corporation, priority 2003, dated 2007)
